EC50 data for 25 compounds are collected here from ChEMBL document CHEMBL5360621, “Discovery and Optimization of a STING Agonist Platform for Application in Antibody Drug Conjugates” (J Med Chem, 2023).

Stimulator of interferon genes protein, sequence (Q86WV6 whole entry): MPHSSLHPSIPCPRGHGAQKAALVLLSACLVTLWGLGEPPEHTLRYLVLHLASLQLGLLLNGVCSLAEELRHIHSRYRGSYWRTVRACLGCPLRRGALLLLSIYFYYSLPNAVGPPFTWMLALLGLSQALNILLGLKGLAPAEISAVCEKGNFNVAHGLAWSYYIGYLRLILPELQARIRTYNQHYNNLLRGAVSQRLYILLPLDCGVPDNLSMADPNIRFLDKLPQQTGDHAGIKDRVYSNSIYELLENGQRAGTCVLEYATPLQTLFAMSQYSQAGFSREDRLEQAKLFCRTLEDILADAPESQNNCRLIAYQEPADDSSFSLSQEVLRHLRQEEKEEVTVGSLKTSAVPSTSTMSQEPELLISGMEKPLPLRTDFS

The assay addresses Stimulator of interferon genes protein (Homo sapiens, UniProt Q86WV6). As to the kind of experiment: Agonist activity at STING in digitonin-permeabilized human THP1-Dual cells expressing NF-kappaB-SEAP and IRF-Lucia luciferase reporter assessed as increase in IRF-luciferase activation incubated for 24 hrs by QUANTI-Luc assay. It is filed as cell-based.
In the case of `CCc1nc(C)oc1C(=O)/N=c1\sc2cc(C(N)=O)cnc2n1C/C=C/Cn1c(NC(=O)c2oc(C)nc2CC)nc2cc(C(N)=O)cc(OCCCO)c21`, the EC50 is 90 nM.
Take `CCc1nc(C)oc1C(=O)Nc1nc2cc(C(N)=O)cc(OCCCO)c2n1C/C=C/Cn1c(NC(=O)c2cc(C)nn2CC)nc2cc(C(N)=O)cc(OC)c21`: the EC50 worked out at 1 nM.
`CCc1nc(C)oc1C(=O)Nc1nc2cc(C(N)=O)cc(OC)c2n1C/C=C/Cn1c(NC(=O)c2cc(C)nn2CC)nc2cc(C(N)=O)cc(OCCCO)c21`: the concentration giving a half-maximal response (EC50) came to 9 nM.
Consider `CCc1nc(C)oc1C(=O)Nc1nc2cc(C(N)=O)cc(OC)c2n1C/C=C/Cn1c(NC(=O)c2oc(C)nc2CC)nc2cc(C(N)=O)cc(OCCCO)c21`, for which the concentration giving a half-maximal response (EC50) stood at 1 nM.
`COc1cc(C(N)=O)cc2nc(NC(=O)c3nc(C)oc3C)n(C/C=C/Cn3c(NC(=O)c4nc(C)oc4C)nc4cc(C(N)=O)cc(OCCCO)c43)c12`: the EC50 is above 100000 nM.
The same measure for `CCc1nc(C)oc1C(=O)Nc1nc2cc(C(N)=O)cc(OCCCO)c2n1C/C=C/Cn1/c(=N/C(=O)c2cc(C)nn2CC)sc2cc(C(N)=O)cc(OC)c21`: 20 nM; for `CCc1ncoc1C(=O)/N=c1\sc2cc(C(N)=O)cc(OC)c2n1C/C=C/Cn1c(NC(=O)c2ocnc2CC)nc2cc(C(N)=O)cc(OCCCO)c21`: above 100000 nM.
In the case of `CCn1nc(C)cc1C(=O)Nc1nc2cc(C(N)=O)cc(OC)c2n1C/C=C/Cn1c(NC(=O)c2cc(C)nn2CC)nc2cc(C(N)=O)cc(OCCCO)c21` it was 1 nM; in that of `CCc1nc(C)oc1C(=O)/N=c1\sc2cc(C(N)=O)cc(OCCCO)c2n1C/C=C/Cn1c(NC(=O)c2oc(C)nc2CC)nc2cc(C(N)=O)cnc21`, 150 nM; in that of `CCc1nc(C)oc1C(=O)Nc1nc2cc(C(N)=O)cnc2n1C/C=C/Cn1c(NC(=O)c2oc(C)nc2CC)nc2cc(C(N)=O)cc(OCCCO)c21`, 7 nM.
For the compound `CCc1nc(C)oc1C(=O)Nc1nc2cc(C(N)=O)cc(OCCCO)c2n1C/C=C/Cn1c(NC(=O)c2cc(C)nn2CC)nc2cc(C(N)=O)cnc21`, the half-maximal effective concentration (EC50) came out at 4 nM.
Consider `CCc1nc(C)oc1C(=O)Nc1nc2cc(C(N)=O)cc(OC)c2n1C/C=C/Cn1c(NC(=O)c2cnc(C)o2)nc2cc(C(N)=O)cc(OCCCO)c21`, for which the EC50 is above 100000 nM.
On to `CCc1nc(C)sc1C(=O)Nc1nc2cc(C(N)=O)cc(OC)c2n1C/C=C/Cn1c(NC(=O)c2sc(C)nc2CC)nc2cc(C(N)=O)cc(OCCCO)c21`, for which the EC50 was 270 nM.
On to `COc1cc(C(N)=O)cc2nc(NC(=O)c3cnc(C)o3)n(C/C=C/Cn3c(NC(=O)c4cnc(C)o4)nc4cc(C(N)=O)cc(OCCCO)c43)c12`, for which the half-maximal effective concentration (EC50) is above 100000 nM.
For `CCc1nc(C)sc1C(=O)Nc1nc2cc(C(N)=O)cc(OCCCO)c2n1C/C=C/Cn1c(NC(=O)c2cc(C)nn2CC)nc2cc(C(N)=O)cc(OC)c21`, the EC50 was found to be 20 nM.
The same measure for `CCc1nc(C)oc1C(=O)/N=c1\sc2cc(C(N)=O)cc(OC)c2n1C/C=C/Cn1c(NC(=O)c2oc(C)nc2CC)nc2cc(C(N)=O)cc(OCCCO)c21`: 60 nM.
With `CCn1nc(C)cc1C(=O)Nc1nc2cc(C(N)=O)cnc2n1C/C=C/Cn1c(NC(=O)c2cc(C)nn2CC)nc2cc(C(N)=O)cc(OCCCO)c21`, the concentration giving a half-maximal response (EC50) worked out at 60 nM.
Take `CCn1nc(C)cc1C(=O)Nc1nc2cc(C(N)=O)cc(OC)c2n1C/C=C/Cn1c(NC(=O)c2cc(C)nn2CC)nc2cc(C(N)=O)cc(OCCCN)c21`: the half-maximal effective concentration (EC50) amounted to 10 nM.
As to `CCn1nc(C)cc1C(=O)/N=c1\sc2cc(C(N)=O)cc(OC)c2n1C/C=C/Cn1c(NC(=O)c2oc(C)nc2C)nc2cc(C(N)=O)cc(OCCCO)c21`, the half-maximal effective concentration (EC50) was above 100000 nM.
Take `CCn1nc(C)cc1C(=O)Nc1nc2cc(C(N)=O)cnc2n1C/C=C/Cn1c(NC(=O)c2oc(C)nc2C)nc2cc(C(N)=O)cc(OCCCO)c21`: the concentration giving a half-maximal response (EC50) was found to be 3200 nM.
Consider `CCn1nc(C)cc1C(=O)Nc1nc2cc(C(N)=O)cc(OC)c2n1C/C=C/Cn1c(NC(=O)c2cc(C)nn2CC)nc2cc(C(N)=O)cc(OCCCC(=O)O)c21`, for which the EC50 came to 18 nM.
With `CCc1nn(C)cc1C(=O)Nc1nc2cc(C(N)=O)cc(OC)c2n1C/C=C/Cn1c(NC(=O)c2cn(C)nc2CC)nc2cc(C(N)=O)cc(OCCCO)c21`, the 50% effective concentration (EC50) is 5000 nM.
For `CCc1nn(C)cc1C(=O)Nc1nc2cc(C(N)=O)cc(OCCCO)c2n1C/C=C/Cn1c(NC(=O)c2cc(C)nn2CC)nc2cc(C(N)=O)cc(OC)c21`, the concentration for a half-maximal effect (EC50) is 20 nM.
Turning to `COc1cc(C(N)=O)cc2nc(NC(=O)c3cnc(C)n3C)n(C/C=C/Cn3c(NC(=O)c4cnc(C)n4C)nc4cc(C(N)=O)cc(OCCCO)c43)c12`, the concentration giving a half-maximal response (EC50) is above 100000 nM.
On to `CCn1nc(C)cc1C(=O)/N=c1\sc2cc(C(N)=O)cc(OC)c2n1C/C=C/Cn1c(NC(=O)c2cc(C)nn2CC)nc2cc(C(N)=O)cc(OCCCO)c21`, for which the 50% effective concentration (EC50) turned out to be 5 nM.
